Measurements reported in ChEMBL document CHEMBL2169830, “Identification, synthesis, and biological evaluation of the metabolites of 3-amino-6-(3'-aminopropyl)-5H-indeno[1,2-c]isoquinoline-5,11-(6H)dione (AM6-36), a promising rexinoid lead compound for the development of cancer chemotherapeutic and chemopreventive agents” (J Med Chem, 2012).

Tests used:
[1] = Drug metabolism in Sprague-Dawley rat assessed as N-[6-(3-Hydroxypropyl)-5,11-dioxo-6,11-dihydro-5Hindeno[1,2-c]isoquinolin-3-yl]acetamide level in mammary gland at 40 mg/kg, po administered 3 days; assay type: ADME, organism-based; design: dose 40 mg/kg, route oral; conditions: in vivo, 72 h
Serum [2] = test: Drug metabolism in Sprague-Dawley rat assessed as N-[6-(3-Hydroxypropyl)-5,11-dioxo-6,11-dihydro-5Hindeno[1,2-c]isoquinolin-3-yl]acetamide level in serum at 40 mg/kg, po administered 3 days; assay type: ADME, organism-based; design: dose 40 mg/kg, route oral; conditions: in vivo, 72 h
Liver [3] = test: Drug metabolism in Sprague-Dawley rat assessed as N-[6-(3-Hydroxypropyl)-5,11-dioxo-6,11-dihydro-5Hindeno[1,2-c]isoquinolin-3-yl]acetamide level in liver at 40 mg/kg, po administered 3 days; assay type: ADME, organism-based; design: dose 40 mg/kg, route oral; conditions: in vivo, 72 h
[4] = Drug metabolism in Sprague-Dawley rat assessed as 3-Amino-11-hydroxy-6-(3-hydroxypropyl)-6,11-dihydro-5Hindeno[1,2-c]isoquinolin-5-one level in mammary gland at 40 mg/kg, po administered 3 days; assay type: ADME, organism-based; design: dose 40 mg/kg, route oral; conditions: in vivo, 72 h
Serum [5] = test: Drug metabolism in Sprague-Dawley rat assessed as 3-Amino-11-hydroxy-6-(3-hydroxypropyl)-6,11-dihydro-5Hindeno[1,2-c]isoquinolin-5-one level in serum at 40 mg/kg, po administered 3 days; assay type: ADME, organism-based; design: dose 40 mg/kg, route oral; conditions: in vivo, 72 h
Liver [6] = test: Drug metabolism in Sprague-Dawley rat assessed as 3-Amino-11-hydroxy-6-(3-hydroxypropyl)-6,11-dihydro-5Hindeno[1,2-c]isoquinolin-5-one level in liver at 40 mg/kg, po administered 3 days; assay type: ADME, organism-based; design: dose 40 mg/kg, route oral; conditions: in vivo, 72 h
[7] = Drug metabolism in Sprague-Dawley rat assessed as 6-(3-Hydroxypropyl)-3-amino-5H-indeno[1,2- c]-isoquinoline-5,11(6H)dione level in mammary gland at 40 mg/kg, po administered 3 days; assay type: ADME, organism-based; design: dose 40 mg/kg, route oral; conditions: in vivo, 72 h
Serum [8] = test: Drug metabolism in Sprague-Dawley rat assessed as 6-(3-Hydroxypropyl)-3-amino-5H-indeno[1,2- c]-isoquinoline-5,11(6H)dione level in serum at 40 mg/kg, po administered 3 days; assay type: ADME, organism-based; design: dose 40 mg/kg, route oral; conditions: in vivo, 72 h
Liver [9] = test: Drug metabolism in Sprague-Dawley rat assessed as 6-(3-Hydroxypropyl)-3-amino-5H-indeno[1,2- c]-isoquinoline-5,11(6H)dione level in liver at 40 mg/kg, po administered 3 days; assay type: ADME, organism-based; design: dose 40 mg/kg, route oral; conditions: in vivo, 72 h
[10] = Drug metabolism in Sprague-Dawley rat assessed as 3-Amino-6-(3-aminopropyl)-11-hydroxy-6,11-dihydro-5Hindeno[1,2-c]isoquinolin-5-one level in mammary gland at 40 mg/kg, po administered 3 days; assay type: ADME, organism-based; design: dose 40 mg/kg, route oral; conditions: in vivo, 72 h
Serum [11] = test: Drug metabolism in Sprague-Dawley rat assessed as 3-Amino-6-(3-aminopropyl)-11-hydroxy-6,11-dihydro-5Hindeno[1,2-c]isoquinolin-5-one level in serum at 40 mg/kg, po administered 3 days; assay type: ADME, organism-based; design: dose 40 mg/kg, route oral; conditions: in vivo, 72 h
Liver [12] = test: Drug metabolism in Sprague-Dawley rat assessed as 3-Amino-6-(3-aminopropyl)-11-hydroxy-6,11-dihydro-5Hindeno[1,2-c]isoquinolin-5-one level in liver at 40 mg/kg, po administered 3 days; assay type: ADME, organism-based; design: dose 40 mg/kg, route oral; conditions: in vivo, 72 h
[13] = Cytotoxicity against human HEK293 cells assessed as cell survival at 50 uM relative to control; assay type: cell-based; conditions: read-out: Survival
[14] = Inhibition of TNFalpha-induced human NFkappaB activity in HEK293 cells incubated for 6 hrs followed by compound wash out measured after 5 mins by luciferase assay; assay type: cell-based
HEK293 = test: Inhibition of TNFalpha-induced human NFkappaB activity in HEK293 cells at 50 uM incubated for 6 hrs followed by compound wash out measured after 5 mins by luciferase assay; assay type: cell-based
[15] = target: T1, Retinoic acid receptor RXR-alpha (Homo sapiens, UniProt P19793); test: Agonist activity at human RXRalpha expressed in african green monkey COS1 cells assessed as induction of RXRE transcriptional activity after 12 hrs by luciferase reporter gene assay; assay type: functional, cell-based, COS-1
T1 sequence (P19793 whole entry): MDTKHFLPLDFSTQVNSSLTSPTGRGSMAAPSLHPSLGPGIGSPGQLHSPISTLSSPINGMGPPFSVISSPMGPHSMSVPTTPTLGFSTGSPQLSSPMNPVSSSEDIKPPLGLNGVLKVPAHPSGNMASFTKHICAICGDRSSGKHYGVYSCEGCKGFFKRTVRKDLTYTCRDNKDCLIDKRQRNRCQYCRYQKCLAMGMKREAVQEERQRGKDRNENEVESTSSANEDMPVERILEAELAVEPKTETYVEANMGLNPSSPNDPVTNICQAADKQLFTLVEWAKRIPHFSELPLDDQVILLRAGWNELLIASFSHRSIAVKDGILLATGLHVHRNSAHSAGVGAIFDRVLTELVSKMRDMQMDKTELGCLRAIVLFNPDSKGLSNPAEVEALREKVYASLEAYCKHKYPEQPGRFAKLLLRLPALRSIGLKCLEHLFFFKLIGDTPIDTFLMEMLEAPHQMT

[16] = Cytotoxicity against african green monkey COS1 cells assessed as cell survival at 50 uM relative to control; assay type: cell-based; conditions: chlorocebus aethiops, COS-1 cells; read-out: Survival
[17] = Drug metabolism in Sprague-Dawley rat assessed as N-[6-(3-Aminopropyl)-5,11-dioxo-6,11-dihydro-5H-indeno- [1,2-c]isoquinolin-3-yl]acetamide level in mammary gland at 40 mg/kg, po administered 3 days; assay type: ADME, organism-based; design: dose 40 mg/kg, route oral; conditions: in vivo, 72 h
Liver [18] = test: Drug metabolism in Sprague-Dawley rat assessed as N-[6-(3-Aminopropyl)-5,11-dioxo-6,11-dihydro-5H-indeno- [1,2-c]isoquinolin-3-yl]acetamide level in liver at 40 mg/kg, po administered 3 days; assay type: ADME, organism-based; design: dose 40 mg/kg, route oral; conditions: in vivo, 72 h
Serum [19] = test: Drug metabolism in Sprague-Dawley rat assessed as N-[6-(3-Aminopropyl)-5,11-dioxo-6,11-dihydro-5H-indeno- [1,2-c]isoquinolin-3-yl]acetamide level in serum at 40 mg/kg, po administered 3 days; assay type: ADME, organism-based; design: dose 40 mg/kg, route oral; conditions: in vivo, 72 h
[20] = Drug metabolism in Sprague-Dawley rat assessed as parent compound level in liver at 40 mg/kg, po administered 3 days; assay type: ADME, organism-based; design: dose 40 mg/kg, route oral; conditions: read-out: Drug metabolism
[21] = Drug metabolism in Sprague-Dawley rat assessed as parent compound level in mammary gland at 40 mg/kg, po administered 3 days; assay type: ADME, organism-based; design: dose 40 mg/kg, route oral; conditions: read-out: Drug metabolism
Liver microsomes [22] = test: Metabolic stability in human liver microsomes assessed as GSH conjugate formation at 10 uM; assay type: ADME, Microsome
Liver microsomes [23] = test: Half life in human liver microsomes at 1 uM; assay type: ADME, Microsome
Liver microsomes [24] = test: Drug metabolism in human liver microsomes assessed as formation of 6-(3-hydroxypropyl)-3-amino-5H-indeno[1,2-c]-isoquinoline-5,11(6H)-dione at 1 uM after 60 mins in presence of NADPH and monoamine oxidase inhibitors clorgiline, pargyline; assay type: ADME, Microsome; conditions: 1 h
Liver microsomes [25] = test: Drug metabolism in human liver microsomes assessed as formation of 6-(3-hydroxypropyl)-3-amino-5H-indeno[1,2-c]-isoquinoline-5,11(6H)-dione at 1 uM preincubated for 10 mins prior to NADPH addition measured 60 mins post NADPH addition; assay type: ADME, Microsome; conditions: 1 h
Hepatocyte [26] = test: Drug metabolism in human hepatocytes assessed as formation of 6-(3-aminopropyl)-3-((2R,3R,4S,5S,6R)-3,4,5-trihydroxy-6-(hydroxymethyl)tetrahydro-2H-pyran-2-ylamino)-5H-indeno[1,2-c]isoquinoline-5,11(6H)-dione at 50 uM after 4 hrs; assay type: ADME, cell-based
Hepatocyte [27] = test: Drug metabolism in human hepatocytes assessed as formation of N-[6-(3-Hydroxypropyl)-5,11-dioxo-6,11-dihydro-5H-5Hindeno[ 1,2-c]isoquinolin 3-yl]acetamide at 50 uM after 4 hrs; assay type: ADME, cell-based
Hepatocyte [28] = test: Drug metabolism in human hepatocytes assessed as formation of 3-Amino-11-hydroxy-6-(3-hydroxypropyl)-6,11-dihydro-5H-5Hindeno[1,2-c]isoquinolin-5-one at 50 uM after 4 hrs; assay type: ADME, cell-based
Hepatocyte [29] = test: Drug metabolism in human hepatocytes assessed as formation of 6-(3-Hydroxypropyl)-3-amino 5H-indeno[1,2c]-isoquinoline-5,11(6H)dione at 50 uM after 4 hrs; assay type: ADME, cell-based
Hepatocyte [30] = test: Drug metabolism in human hepatocytes assessed as formation of N-[6-(3-Aminopropyl)-11-hydroxy-5-oxo-6,11-dihydro-5H-5Hindeno[ 1,2-c]isoquinolin-3-yl]acetamide at 50 uM after 4 hrs; assay type: ADME, cell-based
Hepatocyte [31] = test: Drug metabolism in human hepatocytes assessed as formation of N-[6-(3-Aminopropyl)-5,11-dioxo-6,11-dihydro-5H-indeno-[1,2-c]isoquinolin-3-yl]acetamide at 50 uM after 4 hrs; assay type: ADME, cell-based
Hepatocyte [32] = test: Drug metabolism in human hepatocytes assessed as formation of 3-Amino 6-(3-aminopropyl)-11-hydroxy-6,11-dihydro-5H-indeno[1,2-c]isoquinolin-5-one at 50 uM after 4 hrs; assay type: ADME, cell-based
Liver microsomes [33] = test: Drug metabolism in human liver microsomes assessed as formation of 3-Amino 6-(3-aminopropyl)-11-hydroxy-6,11-dihydro-5H-indeno[1,2-c]isoquinolin-5-one at 1 uM preincubated for 10 mins prior to NADPH addition measured 60 mins post NADPH addition; assay type: ADME, Microsome; conditions: 1 h
[34] = Drug metabolism in Sprague-Dawley rat assessed as parent compound level in serum at 40 mg/kg, po administered 3 days; assay type: ADME, organism-based; design: dose 40 mg/kg, route oral; conditions: read-out: Drug metabolism
Plasma = conditions: human, 10 µM
Description: Plasma protein binding in human plasma at 10 uM

SMILES: NCCCn1c2c(c3ccc(N)cc3c1=O)C(=O)c1ccccc1-2
- Drug metabolism [1]: Not Active
- Drug metabolism (Serum [2]): Not Active
- Drug metabolism (Liver [3]): Active
- Drug metabolism [4]: Not Active
- Drug metabolism (Serum [5]): Not Active
- Drug metabolism (Liver [6]): Active
- Drug metabolism [7]: Not Active
- Drug metabolism (Serum [8]): Not Active
- Drug metabolism (Liver [9]): Active
- Drug metabolism [10]: Not Active
- Drug metabolism (Serum [11]): Not Active
- Drug metabolism (Liver [12]): Active
- viability at 50 µM [13]: 109%
- IC50 [14]: 26.3 µM
- inhibition (HEK293): 84.9%
- EC50 [15]: 3.37 µM
- viability at 50 µM [16]: 58.6%
- Drug metabolism [17]: Not Active
- Drug metabolism (Liver [18]): Active
- Drug metabolism (Serum [19]): Active
- concentration at 72 h [20]: 4300 ng/g
- concentration at 72 h [21]: 300 ng/g
- Stability (Liver microsomes [22]): Stable
- t1/2 (Liver microsomes [23]): 2.17 h
- Drug metabolism (Liver microsomes [24]): Active
- Drug metabolism (Liver microsomes [25]): Active
- Drug metabolism (Hepatocyte [26]): Active
- Drug metabolism (Hepatocyte [27]): Active
- Drug metabolism (Hepatocyte [28]): Active
- Drug metabolism (Hepatocyte [29]): Active
- Drug metabolism (Hepatocyte [30]): Active
- Drug metabolism (Hepatocyte [31]): Active
- Drug metabolism (Hepatocyte [32]): Active
- Drug metabolism (Liver microsomes [33]): Active
- concentration at 72 h [34]: 800 ng/mL
- PPB (Plasma): 75%
